Laboratory results taken from US7329664B2, “Substituted (7-pyridyl-4-phenylamino-quinazolin-2-yl)-methanol analogues” (Neurogen Corporation, priority 2003, dated 2008).

Key:
human capsaicin receptor [1] = biological target: T1, human capsaicin receptor (Homo sapiens, UniProt Q8NER1); assay: Calcium mobilization assay, capsaicin receptor antagonist activity (Example 6); type: cell-based; conditions: read-out: IC50 in standard assay of capsaicin receptor activity
T1 construct: transfected with the pBK-CMV expression construct encoding the full length human capsaicin receptor; expressed in transfected cells
T1 sequence (Q8NER1 whole entry): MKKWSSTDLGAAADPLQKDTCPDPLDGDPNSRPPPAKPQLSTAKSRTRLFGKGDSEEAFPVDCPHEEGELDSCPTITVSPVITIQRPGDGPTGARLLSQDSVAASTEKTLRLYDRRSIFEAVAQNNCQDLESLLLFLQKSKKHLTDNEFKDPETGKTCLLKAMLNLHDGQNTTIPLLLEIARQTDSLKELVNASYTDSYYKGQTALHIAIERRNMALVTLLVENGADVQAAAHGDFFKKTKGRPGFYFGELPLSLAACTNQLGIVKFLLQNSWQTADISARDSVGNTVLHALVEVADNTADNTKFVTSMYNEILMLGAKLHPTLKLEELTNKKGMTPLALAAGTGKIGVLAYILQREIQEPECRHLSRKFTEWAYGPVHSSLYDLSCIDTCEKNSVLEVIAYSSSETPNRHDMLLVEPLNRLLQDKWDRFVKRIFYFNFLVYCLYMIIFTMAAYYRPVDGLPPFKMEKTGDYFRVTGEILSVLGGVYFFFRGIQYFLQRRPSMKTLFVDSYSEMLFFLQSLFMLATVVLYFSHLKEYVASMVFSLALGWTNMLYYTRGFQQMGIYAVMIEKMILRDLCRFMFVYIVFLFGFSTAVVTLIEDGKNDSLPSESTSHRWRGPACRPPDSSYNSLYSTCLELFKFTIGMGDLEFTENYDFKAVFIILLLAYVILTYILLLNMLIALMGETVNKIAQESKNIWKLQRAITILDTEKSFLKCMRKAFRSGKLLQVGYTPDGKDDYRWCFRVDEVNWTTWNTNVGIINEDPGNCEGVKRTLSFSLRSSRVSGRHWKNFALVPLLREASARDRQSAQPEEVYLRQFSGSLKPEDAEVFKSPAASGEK
Procedure: Human embryonic kidney (HEK293) cells were transfected with the pBK-CMV expression construct encoding the full length human capsaicin receptor using standard methods. The transfected cells were selected for two weeks in media containing G418 (400 μg/ml) to obtain a pool of stably transfected cells. Independent clones were isolated from this pool by limiting dilution to obtain clonal stable cell lines for use in subsequent experiments.
This Example illustrates representative calcium mobilization assays for use in evaluating test compounds for agonist and antagonist activity.
Cells transfected with expression plasmids (as described in Example 4) and thereby expressing human capsaicin receptor are seeded and grown to 70-90% confluency in FALCON black-walled, clear-bottomed 96-well plates (#3904, BECTON-DICKINSON, Franklin Lakes, N.J.). The culture medium is emptied from the 96 well plates and FLUO-3 AM calcium sensitive dye (Molecular Probes, Eugene, Oreg.) is added to each well (dye solution: 1 mg FLUO-3 AM, 440 μL DMSO and 440 μl 20% pluronic acid in DMSO, diluted 1:250 in Krebs-Ringer HEPES (KRH) buffer (25 mM HEPES, 5 mM KCl, 0.96 mM NaH2PO4, 1 mM MgSO4, 2 mM CaCl2, 5 mM glucose, 1 mM probenecid, pH 7.4), 50 μl diluted solution per well). […] After the incubation, the dye is emptied from the plates, and the cells are washed once with KRH buffer, and resuspended in KRH buffer.
(§1) To measure the ability of a test compound to agonize or antagonize a calcium mobilization response in cells expressing capsaicin receptors to capsaicin or other vanilloid agonist, the EC50 of the agonist capsaicin is first determined. An additional 20 μl of KRH buffer and 1 μl DMSO is added to each well of cells, prepared as described above. 100 μl capsaicin in KRH buffer is automatically transferred by the FLIPR instrument to each well. Capsaicin-induced calcium mobilization is monitored using either FLUOROSKAN ASCENT (Labsystems; Franklin, Mass.) or FLIPR (fluorometric imaging plate reader system; Molecular Devices, Sunnyvale, Calif.) instruments. […] In this equation, y is the maximum fluorescence signal, x is the concentration of the agonist or antagonist (in this case, capsaicin), a is the Emax, b corresponds to the EC50 value and c is the Hill coefficient. […]
Test compounds are dissolved in DMSO, diluted in 20 μl KRH buffer so that the final concentration of test compounds in the assay well is between 1 μM and 5 μM, and added to cells prepared as described above. […] Just prior to determining the fluorescence response, 100 μl capsaicin in KRH buffer at twice the EC50 concentration determined as described above is automatically added by the FLIPR instrument to each well of the 96 well plate for a final sample volume of 200 μl and a final capsaicin concentration equal to the EC50. […]

human capsaicin receptor [2] = biological target: T1, human capsaicin receptor; assay: Calcium mobilization assay, agonist response to capsaicin (Example 6); type: cell-based; conditions: cells expressing human capsaicin receptor, positive control; read-out: approximate EC90 concentration
Procedure: Cells transfected with expression plasmids (as described in Example 4) and thereby expressing human capsaicin receptor are seeded and grown to 70-90% confluency in FALCON black-walled, clear-bottomed 96-well plates (#3904, BECTON-DICKINSON, Franklin Lakes, N.J.). The culture medium is emptied from the 96 well plates and FLUO-3 AM calcium sensitive dye (Molecular Probes, Eugene, Oreg.) is added to each well (dye solution: 1 mg FLUO-3 AM, 440 μL DMSO and 440 μl 20% pluronic acid in DMSO, diluted 1:250 in Krebs-Ringer HEPES (KRH) buffer (25 mM HEPES, 5 mM KCl, 0.96 mM NaH2PO4, 1 mM MgSO4, 2 mM CaCl2, 5 mM glucose, 1 mM probenecid, pH 7.4), 50 μl diluted solution per well). […]
as §1, with “An additional 20 μl of KRH buffer and 1 μl DMSO is added to each well of cells, prepared as described above. 100 μl capsaicin in KRH buffer is automatically transferred by the FLIPR instrument to each well.” left out

Compound	IC50 (human capsaicin receptor [1]) [nM]	EC90 (human capsaicin receptor [2]) [nM]
CC(C)COCc1nc(Nc2ccc(C(F)(F)F)cn2)c2ccc(-c3ncccc3C(F)(F)F)nc2n1 [Compound 132, [2-lsobutoxymethyl-7-(3-trifluoromethyl-pyridin-2-yl)-pyrido[2,3-d]pyrimidin-4-yl]-(5-trifluoromethyl-pyridin-2-yl)-amine]	< 10	
COCc1nc(Nc2ccc(C(F)(F)F)cc2)c2ccc(-c3ncccc3Cl)nc2n1 [Compound 2, [7-(3-Chloro-pyridin-2-yl)-2-methoxymethyl-pyrido[2,3-d]pyrimidin-4-yl]-(4-trifluoromethyl-phenyl)-amine]	< 10	

Other lines, results leading:

IC50 (human capsaicin receptor [1]) [nM]	EC90 (human capsaicin receptor [2]) [nM]	Compound
< 10		COCc1nc(Nc2ccc(C(F)(F)F)cc2)c2ccc(-c3ncccc3C)cc2n1 [Compound 3, [2-Methoxymethyl-7-(3-methylpyridin-2-yl)-quinazolin-4-yl)-(4-trifluoromethylphenyl)-amine]
< 10		COCc1nc(Nc2ccc(C(F)(F)F)cn2)c2ccc(-c3ncccc3C(F)(F)F)nc2n1 [Compound 133, [2-Methoxymethyl-7-(3-trifluoromethyl-pyridin-2-yl)-pyrido[2,3-d]pyrimidin-4-yl]-(5-trifluoromethy1-pyridin-2-yl)-amine]
	~100	COc1cc(CNC(=O)CCCC/C=C/C(C)C)ccc1O [capsaicin]
